Assay results: patent publication US12332198B2, “Metabolite based diagnostics for periprosthetic joint infection” (priority 2022, dated 2025)
Values joined by “and” are separate entries in the source; they are usually repeats but may differ in a detail not shown here. Identical values can stand only once. “Also recorded” adds a separate entry of the source.

Legend:
PAO1 Td-tomato or Xen41 = assay: Culture imaging by photo, dissecting microscope and IVIS (biofilm morphology); assay type: cell-based, Pseudomonas aeruginosa; details: 3.30 mM cadaverine
Description: PAO1 Td-tomato or Xen41 cultures were grown similarly to CLSM cultures described above. iPhone 8 images were taken in a controlled well-lit environment. The air-liquid interface was imaged using an Amscope dissecting microscope with an MU500 camera. Xen41 light emission was detected with an IVIS Lumina II system (Caliper LifeSciences) as an indicator of biofilm activity.

P. aeruginosa = details: previous studies; cited from earlier work
HT29 intestinal cells = details: up to 70 mM in HT29 intestinal cells; cited from earlier work
P. aeruginosa PAO1 = assay: Microtiter plate assay: planktonic growth (OD600) and crystal violet staining of biofilm (OD590); assay type: cell-based, Pseudomonas aeruginosa
Description: Cadaverine (Sigma Aldrich) 5- or 10-mM stocks were prepared in LB and sterile filtered with a […] filter. […] […] Outer edge wells were filled with PBS to avoid “edge effects” due to evaporation. OD600 was measured to quantify planktonic growth. Liquid media was gently aspirated, and wells were washed three times with 150 μL PBS. Adhered biofilm was stained with 125 μL of 0.1% crystal violet (CV) in 20% ethanol in ddH2O (v/v) for 30 min. CV was gently aspirated, wells were washed five times with 150 μL PBS, and CV was solubilized with 150 μL 33% glacial acetic acid in ddH2O (v/v) by shaking gently at 100 rpm at room temperature for 25 min. CV was quantified at OD590 to report biofilm accumulation. LB blanks were averaged and subtracted from readings. Control PAO1 wells were averaged, and all measurements were normalized to control measurements per plate and reported as percent change from control.

rats = details: 2,000 mg/kg body weight in rats; cited from earlier work
[1] = test system: P. aeruginosa PAO1 biofilm; assay: Confocal laser scanning microscopy (CLSM) of biofilm accumulation; assay type: cell-based, Pseudomonas aeruginosa; details: 3.30 mM cadaverine, 24 hrs, SYTO 9, n=5
Description: PAO1 overnight cultures were diluted to OD600=0.17 in LB with 0 or 3.30 mM cadaverine in 35×10 mm confocal dishes and incubated statically at 37° C. in 5% CO2 for 24 hrs. Liquid media was aspirated and adhered biofilm was stained with SYTO 9 for 10 min and washed with PBS. CLSM stitched images were collected (n=5) with a laser power of 4.5% under 10× magnification using an Olympus FluoView FV10i CLSM. Mean gray scale value and surface area coverage were quantified using Fiji.

[2] = PAO1 Td-tomato, cadaverine 24 hrs
[3] = pre-formed biofilm: grown 24 hrs, then cadaverine for additional 24 hrs

For `NCCCCCN` [Cadaverine], the biofilm morphology (PAO1 Td-tomato or Xen41; 24 hrs, standing liquid culture, PAO1 Td-tomato) is listed as “more aggregate-like, in a pellicle”, the “metabolic state of pellicle biofilm (IVIS luminescence)” value (PAO1 Td-tomato or Xen41; PAO1 Xen41, air-liquid interface) is listed as “metabolically active” and the “effect on effectiveness of β-lactams” value (P. aeruginosa) is listed as “enhances the effectiveness of many β-lactams”. For the same compound, the cytotoxicity (HT29 intestinal cells) was “negligible cytotoxicity”, the “bactericidal or bacteriostatic effect” value (P. aeruginosa PAO1; OD600, 0-3.30 mM cadaverine) was “not bactericidal; also recorded: did not have a bactericidal or bacteriostatic effect” and the “biofilm accumulation decrease (crystal violet OD590), percent change from control” value (P. aeruginosa PAO1; [2]) was 37%. The “planktonic growth increase (OD600), percent change from control” value (P. aeruginosa PAO1; [2]) was 4%, the “planktonic growth increase (OD600), percent change from control” value (P. aeruginosa PAO1; WT PAO1, 0-3.30 mM cadaverine from initiation, 24 hrs, maximal (3.30 mM)) was 20.5±4.2% and 21% and the “biofilm accumulation (crystal violet OD590) at low concentration” value (P. aeruginosa PAO1; WT PAO1, 25 μM cadaverine, 24 hrs) was “increased marginally”. For the same compound, the “biofilm accumulation decrease (crystal violet OD590), percent change from control” value (P. aeruginosa PAO1; [3]) was 39.8±2.5% and 40%, the “planktonic growth increase (OD600), percent change from control” value (P. aeruginosa PAO1; [3]) was 5.8±1.8% and 6% and the acute oral toxicity (rats) was “low acute oral toxicity”. The “reduction in biofilm accumulation by mean grayscale value” [1] was 54.5±26.0% and 55% and the “reduction in biofilm accumulation by surface area coverage” value [1] was 79.8±55.1% and 80%.
